# Calls of active or inactive are those of the source. No cut-off for these calls is given here.
# Key:
# [1] = Prodrug conversion in BALB/c mouse xenografted with human hypoxic A549 cells assessed as rhodamine release by measuring increase in fluorescence intensity in tumor at 2.5 mg/kg,iv and measured after 29 hrs by fluorescence imaging analysis; format: ADME, organism-based; conditions: in vivo
# [2] = Prodrug conversion in PBS at pH 7.4 assessed as Escherichia coli nitroreductase mediated drug degradation by measuring increase in maximum absorption at 522nm at 5 uM in presence of NADH as cofactor by UV-Vis spectroscopic analysis; format: ADME; conditions: isolated protein, pH 7.4, 5 µM
# [3] = Biodistribution in tumor of BALB/c mouse xenografted with human hypoxic A549 cells assessed as drug uptake at 2.5 mg/kg,iv and measured after 29 hrs by fluorescence imaging analysis; format: ADME, organism-based, Neoplasm; conditions: in vivo
# Escherichia coli = assay: Antibacterial activity against Escherichia coli assessed as reduction in bacterial cell viability at 250 to 500 uM incubated for 24 hrs by CFU assay; format: functional, organism-based; conditions: dose 250-500 µM
# [4] = Prodrug conversion in Escherichia coli assessed as nitroreductase mediated drug degradation by measuring increase in fluorescence intensity at 10 uM by fluorescence analysis relative to control; format: ADME
# Bacillus subtilis = assay: Antibacterial activity against Bacillus subtilis assessed as reduction in bacterial cell viability at 250 to 500 uM incubated for 24 hrs by CFU assay; format: functional, organism-based; conditions: dose 250-500 µM
# [5] = Prodrug conversion in Bacillus subtilis assessed as nitroreductase mediated drug degradation by measuring increase in fluorescence intensity at 10 uM by fluorescence analysis; format: ADME
# [6] = Prodrug conversion in human serum assessed as […] mediated drug degradation by measuring fluorescence production at 10 uM incubated for 30 mins by fluorescence spectroscopic analysis; format: ADME, cell-free; conditions: 0.5 h
# [7] = Prodrug conversion in Bacillus subtilis assessed as nitroreductase mediated drug degradation by measuring increase in fluorescence intensity at 10 uM in presence of dicoumarol by fluorescence analysis; format: ADME
# [8] = Prodrug conversion in PBS at 7.4 assessed as Escherichia coli nitroreductase mediated drug degradation by measuring increase in fluorescence emission at 545nm at 10 uM in presence of NADH as cofactor by fluorescence spectroscopic analysis; format: ADME; conditions: isolated protein, pH 7.4, 10 µM
# [9] = Prodrug conversion in tumor of BALB/c mouse xenografted with human hypoxic A549 cells assessed as fold increase in fluorescence intensity at 2.5 mg/kg,iv and measured after 29 hrs by fluorescence imaging analysis relative to control; format: ADME, organism-based, Neoplasm; conditions: in vivo
# [10] = Prodrug conversion in human serum assessed as NO mediated drug degradation by measuring fluorescence production at 10 uM incubated for 30 mins by fluorescence spectroscopic analysis; format: ADME, cell-free; conditions: 0.5 h
# [11] = Prodrug conversion in BALB/c mouse xenografted with human hypoxic A549 cells assessed as rhodamine release by measuring increase in fluorescence intensity in tumor at 2.5 mg/kg,iv and measured after 2.5 hrs by fluorescence imaging analysis; format: ADME, organism-based; conditions: in vivo
# [12] = Prodrug conversion in pH 4 to 8 buffer assessed as Escherichia coli nitroreductase mediated drug degradation by measuring fluorescence intensity at 10 uM incubated for 30 mins by fluorescence spectroscopic analysis; format: ADME; conditions: isolated protein, pH 4, 0.5 h
# [13] = Prodrug conversion in human serum assessed as FADH2 mediated drug degradation by measuring fluorescence production at 10 uM incubated for 30 mins by fluorescence spectroscopic analysis; format: ADME, cell-free; conditions: 0.5 h
# [14] = Prodrug conversion in human serum assessed as NO3- ion mediated drug degradation by measuring fluorescence production at 10 uM incubated for 30 mins by fluorescence spectroscopic analysis; format: ADME, cell-free; conditions: 0.5 h
# [15] = Biodistribution in kidney of BALB/c mouse xenografted with human hypoxic A549 cells assessed as drug uptake at 2.5 mg/kg,iv and measured after 29 hrs by fluorescence imaging analysis; format: ADME, organism-based; conditions: in vivo
# [16] = Prodrug conversion in human serum assessed as HNO mediated drug degradation by measuring fluorescence production at 10 uM incubated for 30 mins by fluorescence spectroscopic analysis; format: ADME, cell-free; conditions: 0.5 h
# [17] = Prodrug conversion in human serum assessed as glutathione mediated drug degradation by measuring fluorescence production at 10 uM incubated for 30 mins by fluorescence spectroscopic analysis; format: ADME, cell-free; conditions: 0.5 h
# [18] = Prodrug conversion in BALB/c mouse xenografted with human hypoxic A549 cells assessed as rhodamine release by measuring fold increase in fluorescence intensity in tumor at 2.5 mg/kg,iv and measured after 17 hrs by fluorescence imaging analysis relative to control; format: ADME, organism-based; conditions: in vivo
# [19] = Prodrug conversion in human serum assessed as serine mediated drug degradation by measuring fluorescence production at 10 uM incubated for 30 mins by fluorescence spectroscopic analysis; format: ADME, cell-free; conditions: 0.5 h
# [20] = Prodrug conversion in human serum assessed as cysteine mediated drug degradation by measuring fluorescence production at 10 uM incubated for 30 mins by fluorescence spectroscopic analysis; format: ADME, cell-free; conditions: 0.5 h
# [21] = Biodistribution in heart of BALB/c mouse xenografted with human hypoxic A549 cells assessed as drug uptake at 2.5 mg/kg,iv and measured after 29 hrs by fluorescence imaging analysis; format: ADME, organism-based; conditions: in vivo
# [22] = Prodrug conversion in PBS at 7.4 assessed as Escherichia coli nitroreductase mediated drug degradation by measuring rhodamine metabolite formation at 10 uM incubated for 30 mins by HRMS analysis; format: ADME; conditions: isolated protein, pH 7.4, 0.5 h
# [23] = Biodistribution in spleen of BALB/c mouse xenografted with human hypoxic A549 cells assessed as drug uptake at 2.5 mg/kg,iv and measured after 29 hrs by fluorescence imaging analysis; format: ADME, organism-based; conditions: in vivo
# [24] = Prodrug conversion in human serum assessed as tyrosinase mediated drug degradation by measuring fluorescence production at 10 uM incubated for 30 mins by fluorescence spectroscopic analysis; format: ADME, cell-free; conditions: 0.5 h
# [25] = Prodrug conversion in human serum assessed as Fe3+ ion mediated drug degradation by measuring fluorescence production at 10 uM incubated for 30 mins by fluorescence spectroscopic analysis; format: ADME, cell-free; conditions: 0.5 h
# [26] = Prodrug conversion in human serum assessed as trypsin mediated drug degradation by measuring fluorescence production at 10 uM incubated for 30 mins by fluorescence spectroscopic analysis; format: ADME, cell-free; conditions: 0.5 h
# [27] = Prodrug conversion in human serum assessed as H2O2 mediated drug degradation by measuring fluorescence production at 10 uM incubated for 30 mins by fluorescence spectroscopic analysis; format: ADME, cell-free; conditions: 0.5 h
# [28] = Prodrug conversion in human serum assessed as arginine mediated drug degradation by measuring fluorescence production at 10 uM incubated for 30 mins by fluorescence spectroscopic analysis; format: ADME, cell-free; conditions: 0.5 h
# [29] = Prodrug conversion in Escherichia coli assessed as nitroreductase mediated drug degradation by measuring increase in fluorescence intensity at 10 uM in presence of dicoumarol by fluorescence analysis; format: ADME
# [30] = Prodrug conversion in human serum assessed as Fe2+ ion mediated drug degradation by measuring fluorescence production at 10 uM incubated for 30 mins by fluorescence spectroscopic analysis; format: ADME, cell-free; conditions: 0.5 h
# [31] = Biodistribution in tumor of BALB/c mouse xenografted with human hypoxic A549 cells assessed as fold increase in drug uptake at 2.5 mg/kg,iv and measured after 29 hrs by fluorescence imaging analysis relative to control; format: ADME, organism-based, Neoplasm; conditions: in vivo
# [32] = Prodrug conversion in human serum assessed as GSH mediated drug degradation by measuring fluorescence production at 10 uM incubated for 30 mins by fluorescence spectroscopic analysis; format: ADME, cell-free; conditions: 0.5 h
# [33] = Prodrug conversion in PBS at 7.4 assessed as Escherichia coli nitroreductase mediated drug degradation by measuring norfloxacin metabolite formation at 10 uM incubated for 30 mins by HRMS analysis; format: ADME; conditions: isolated protein, pH 7.4, 0.5 h
# [34] = Prodrug conversion in human serum assessed as pepsin mediated drug degradation by measuring fluorescence production at 10 uM incubated for 30 mins by fluorescence spectroscopic analysis; format: ADME, cell-free; conditions: 0.5 h
# [35] = Biodistribution in stomach of BALB/c mouse xenografted with human hypoxic A549 cells assessed as drug uptake at 2.5 mg/kg,iv and measured after 29 hrs by fluorescence imaging analysis; format: ADME, organism-based; conditions: in vivo
# [36] = Prodrug conversion in BALB/c mouse xenografted with human hypoxic A549 cells assessed as rhodamine release by measuring increase in fluorescence intensity in body at 2.5 mg/kg,iv and measured upto 29 hrs by fluorescence imaging analysis; format: ADME, organism-based; conditions: in vivo
# [37] = Prodrug conversion in human serum assessed as ascorbic acid mediated drug degradation by measuring fluorescence production at 10 uM incubated for 30 mins by fluorescence spectroscopic analysis; format: ADME, cell-free; conditions: 0.5 h
# [38] = Biodistribution in liver of BALB/c mouse xenografted with human hypoxic A549 cells assessed as drug uptake at 2.5 mg/kg,iv and measured after 29 hrs by fluorescence imaging analysis; format: ADME, organism-based; conditions: in vivo
# [39] = Prodrug conversion in human serum assessed as hydroxyl radical mediated drug degradation by measuring fluorescence production at 10 uM incubated for 30 mins by fluorescence spectroscopic analysis; format: ADME, cell-free; conditions: 0.5 h
# [40] = Prodrug conversion in human serum assessed as Cu2+ ion mediated drug degradation by measuring fluorescence production at 10 uM incubated for 30 mins by fluorescence spectroscopic analysis; format: ADME, cell-free; conditions: 0.5 h
# [41] = Prodrug conversion in Escherichia coli assessed as nitroreductase mediated drug degradation by measuring fold increase in fluorescence intensity at 10 uM by fluorescence analysis relative to control; format: ADME
# [42] = Prodrug conversion in human serum assessed as glutamic acid mediated drug degradation by measuring fluorescence production at 10 uM incubated for 30 mins by fluorescence spectroscopic analysis; format: ADME, cell-free; conditions: 0.5 h
# [43] = Prodrug conversion in human serum assessed as Zn2+ ion mediated drug degradation by measuring fluorescence production at 10 uM incubated for 30 mins by fluorescence spectroscopic analysis; format: ADME, cell-free; conditions: 0.5 h
# [44] = Biodistribution in intestine of BALB/c mouse xenografted with human hypoxic A549 cells assessed as drug uptake at 2.5 mg/kg,iv and measured after 29 hrs by fluorescence imaging analysis; format: ADME, organism-based; conditions: in vivo
# [45] = Prodrug conversion in PBS at pH 7.4 assessed as Escherichia coli nitroreductase mediated drug degradation by measuring change in fluorescence intensity at 545nm at 10 uM incubated for 20 mins by fluorescence spectroscopic analysis; format: ADME; conditions: isolated protein, pH 7.4, 20 min
compound,measurement,setting,value
CCN(CC)c1ccc2c(c1)Oc1cc(OC(=O)OCc3cc(C)cc(COC(=O)c4cn(CC)c5cc(N6CCNCC6)c(F)cc5c4=O)c3OCc3ccccc3)ccc1C21OC(=O)c2ccccc21 (centres undefined),Drug metabolism,[1],Metabolite_Notdetected
same,Drug metabolism,[2],Metabolite_Notdetected
same,Drug uptake,[3],Not Active
same,Activity,Escherichia coli,Active
same,Drug metabolism,[4],Metabolite_Notdetected
same,Activity,Bacillus subtilis,Dose-Dependent Effect
same,Drug metabolism,[5],Metabolite_Notdetected
CCN(CC)c1ccc2c(c1)Oc1cc(OC(=O)OCc3cc(C)cc(COC(=O)c4cn(CC)c5cc(N6CCNCC6)c(F)cc5c4=O)c3OCc3ccc([N+](=O)[O-])cc3)ccc1C21OC(=O)c2ccccc21 (centres undefined),Drug metabolism,[1],Metabolite_Detected
same,Drug metabolism,[6],Metabolite_Notdetected
same,Drug metabolism,[7],Metabolite_Notdetected
same,Drug metabolism,[8],Metabolite_Detected
same,fold change (FC),[9],4.5
same,Drug metabolism,[10],Metabolite_Notdetected
same,Drug metabolism,[11],Metabolite_Detected
same,Drug metabolism,[12],Metabolite_Detected
same,Drug metabolism,[13],Metabolite_Notdetected
same,Drug metabolism,[2],Metabolite_Detected
same,Drug metabolism,[14],Metabolite_Notdetected
same,Drug uptake,[15],Not Active
same,Drug metabolism,[16],Metabolite_Notdetected
same,Drug metabolism,[17],Metabolite_Notdetected
same,fold change (FC),[18],4.1
same,Drug metabolism,[19],Metabolite_Notdetected
same,Drug metabolism,[20],Metabolite_Notdetected
same,Drug uptake,[21],Not Active
same,Drug metabolism,[22],Metabolite_Detected
same,Drug uptake,[23],Not Active
same,Drug metabolism,[24],Metabolite_Notdetected
same,Drug metabolism,[25],Metabolite_Notdetected
same,Drug metabolism,[26],Metabolite_Notdetected
same,Drug metabolism,[27],Metabolite_Notdetected
same,Drug metabolism,[28],Metabolite_Notdetected
same,Drug metabolism,[29],Metabolite_Notdetected
same,Drug metabolism,[30],Metabolite_Notdetected
same,fold change (FC),[31],4
same,Drug metabolism,[32],Metabolite_Notdetected
same,Drug metabolism,[33],Metabolite_Detected
same,Drug metabolism,[34],Metabolite_Notdetected
same,Drug uptake,[3],Active
same,Drug uptake,[35],Active
same,Drug metabolism,[36],Metabolite_Detected
same,Drug metabolism,[37],Metabolite_Notdetected
same,Drug uptake,[38],Not Active
same,Activity,Escherichia coli,Active
same,Drug metabolism,[39],Metabolite_Notdetected
same,Drug metabolism,[40],Metabolite_Notdetected
same,fold change (FC),[41],3.5
same,Drug metabolism,[42],Metabolite_Notdetected
same,Activity,Bacillus subtilis,Dose-Dependent Effect
same,Drug metabolism,[43],Metabolite_Notdetected
same,Drug uptake,[44],Active
same,Drug metabolism,[45],Metabolite_Detected
same,Drug metabolism,[5],Metabolite_Detected
CCn1cc(C(=O)O)c(=O)c2cc(F)c(N3CCNCC3)cc21,Activity,Escherichia coli,Active

# — ChEMBL document CHEMBL5370618, “Hypoxia-Directed and Self-Immolative Theranostic Agent: Imaging and Treatment of Cancer and Bacterial Infections” (J Med Chem, 2023)
